Experimental data taken from the CheMixHub ionic liquid set.

Experiment: xn = mol fraction of the nth substance listed
Details: for electrical conductivity: frequency 0.00293 MHz

CC(CC(C)(C)C)CP(=O)([O-])CC(C)CC(C)(C)C.CCCCCCCCCCCCCC[P+](CCCCCC)(CCCCCC)CCCCCC + CCCCCCCCCCCC
101 kPa
Details	viscosity [mPa·s]
298.15 K, x1 = 0.4684	82
303.15 K, x1 = 1	757
308.15 K, x1 = 0.4684	56.3
318.15 K, x1 = 0.6647	103
338.15 K, x1 = 0.6647	50.4
343.15 K, x1 = 0.6647	43.4
343.15 K, x1 = 1	111

CC#N + CCCCCC[P+](CCCC)(CCCC)CCCC.F[B-](F)(F)F
100 kPa, x2 = 0
Details	viscosity [mPa·s]
293.15 K	0.354
298.15 K	0.338
303.15 K	0.324
308.15 K	0.31
313.15 K	0.298
318.15 K	0.286

CC[NH2+]CC.O=[N+]([O-])[O-] + CC[NH3+].O=[N+]([O-])[O-]
101 kPa
Details	electrical conductivity [S/m]	viscosity [mPa·s]
293.15 K, x1 = 0.0998	1.73	43.2
293.15 K, x1 = 0.3501	1.46	–
298.15 K, x1 = 0.2501	–	38.3
308.15 K, x1 = 0.0499	2.78	27
313.15 K, x1 = 0.1999	2.79	25.1
313.15 K, x1 = 0.3501	2.63	24.9
318.15 K, x1 = 0.0998	3.44	19.7
318.15 K, x1 = 0.1499	3.39	–
318.15 K, x1 = 0.2998	–	20.3
323.15 K, x1 = 0.1499	3.79	17.9
323.15 K, x1 = 0.1999	3.53	19.1
328.15 K, x1 = 0.0998	–	15.3
338.15 K, x1 = 0.2998	–	12.2
353.15 K, x1 = 0.0998	–	8.96
353.15 K, x1 = 0.1499	–	8.99
353.15 K, x1 = 0.1999	–	9.7
353.15 K, x1 = 0.3501	–	9.47

CN(C)C=O + CC[n+]1ccn(C)c1.[Cl-]
Details	viscosity [mPa·s]
288.15 K, 101 kPa, x1 = 1	0.94

CCCCCCCC/C=C\CCCCCCCC(=O)O + Cc1ccccc1 + CC[N+](CC)(CC)CC.[Cl-]
298.2 K, 100 kPa
Details	viscosity [mPa·s]
x2 = 0, x3 = 0.25	202
x2 = 0.2, x3 = 0.2	39
x2 = 0.4, x3 = 0.149	10.8
x2 = 0.6, x3 = 0.1	3.19
x2 = 0.8, x3 = 0.05	0.91
